In US12428394B2, “2,4-disubstituted pyrimidine derivative, preparation method therefor and use thereof” (CHENGDU ZENITAR BIOMEDICAL TECHNOLOGY CO., LTD., priority 2019, dated 2025):

Experiments:
[1] = molecular target: T1, JAK2 (Homo sapiens, UniProt O60674); experiment: In vitro kinase activity experiment, JAK2; format: biochemical; conditions: inhibition rate of enzyme at 500 nM; measured by Eurofins
T1 construct: purchased Eurofins
Method in brief: (§1)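 Radiometric filter-binding assay: kinase, its substrate and compound in 8 mM MOPS pH 7.0, 0.2 mM EDTA, 10 mM MnCl2, with 10 mM magnesium acetate and γ33P-ATP; MgATP started the reaction, 40 min at room temperature. Stopped with 3% phosphate, spotted on Filtermat A, washed, scintillation counted.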

[2] = system: MOLM-13 cells (FLT3-ITD-/+); experiment: Inhibition of cell proliferation by MTT experiment, MOLM-13; format: cell-based, human; conditions: Homo sapiens, MOLM-13; MTT, 72 h; read-out: IC50 value on cell proliferation inhibition, MOLM-13 FLT3-ITD-/+
Method in brief: (§2)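 MTT assay in MV4-11, MOLM-13 (FLT3-ITD) and SET-2 (JAK2 V617F) cells at 10,000–15,000 cells/well in IMDM with 10% FBS. Cells are exposed to compound for 72 h at 37 °C, then to MTT for 1–3 h. IC50 is fitted from inhibition rates across concentrations.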

[3] = molecular target: T2, FLT3 (Homo sapiens, UniProt P36888); experiment: In vitro kinase activity experiment, FLT3; format: biochemical; conditions: 40 min; inhibition rate of enzyme at 500 nM; measured by Eurofins; read-out: Kinase activity @ 500 nM (%) FLT3
T2 construct: purchased Eurofins
T2 sequence (P36888 27-993): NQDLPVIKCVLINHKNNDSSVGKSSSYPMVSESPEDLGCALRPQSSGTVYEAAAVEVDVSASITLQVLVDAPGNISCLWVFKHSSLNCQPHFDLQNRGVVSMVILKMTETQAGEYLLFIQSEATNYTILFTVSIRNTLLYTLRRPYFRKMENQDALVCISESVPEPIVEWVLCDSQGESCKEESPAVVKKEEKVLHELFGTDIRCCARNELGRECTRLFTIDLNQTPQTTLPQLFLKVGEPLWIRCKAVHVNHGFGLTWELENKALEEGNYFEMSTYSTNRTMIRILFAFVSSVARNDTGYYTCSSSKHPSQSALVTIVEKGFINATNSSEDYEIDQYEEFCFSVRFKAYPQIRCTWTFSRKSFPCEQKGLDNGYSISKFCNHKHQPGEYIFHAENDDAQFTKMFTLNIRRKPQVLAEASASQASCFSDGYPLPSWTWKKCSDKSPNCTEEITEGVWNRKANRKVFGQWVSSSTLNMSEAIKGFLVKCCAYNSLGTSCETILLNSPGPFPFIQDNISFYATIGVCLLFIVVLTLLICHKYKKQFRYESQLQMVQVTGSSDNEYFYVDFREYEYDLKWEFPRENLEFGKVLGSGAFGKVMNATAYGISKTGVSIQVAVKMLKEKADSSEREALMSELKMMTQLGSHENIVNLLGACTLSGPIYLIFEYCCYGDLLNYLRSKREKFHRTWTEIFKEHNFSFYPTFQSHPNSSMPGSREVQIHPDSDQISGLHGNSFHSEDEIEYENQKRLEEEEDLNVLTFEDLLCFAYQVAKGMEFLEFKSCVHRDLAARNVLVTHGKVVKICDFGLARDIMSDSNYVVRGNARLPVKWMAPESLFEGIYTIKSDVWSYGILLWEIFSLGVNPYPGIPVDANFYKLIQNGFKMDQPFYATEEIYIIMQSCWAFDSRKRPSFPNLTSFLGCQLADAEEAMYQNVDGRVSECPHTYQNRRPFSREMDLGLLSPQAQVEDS
Method in brief: as §1

[4] = system: SET-2 cells (JAK2 V617F); experiment: Inhibition of cell proliferation by MTT experiment, SET-2; format: cell-based; conditions: Homo sapiens, SET-2; MTT, 72 h; read-out: IC50 value on cell proliferation inhibition, SET-2 (V617F)
Method in brief: as §2

[5] = system: MV4-11 cells (FLT3-ITD+/+); experiment: Inhibition of cell proliferation by MTT experiment, MV4-11; format: cell-based, human; conditions: Homo sapiens, MV4-11; MTT, 72 h; read-out: IC50 value on cell proliferation inhibition, MV4-11 FLT3-ITD+/+
Method in brief: as §2

T1 sequence (O60674 whole entry): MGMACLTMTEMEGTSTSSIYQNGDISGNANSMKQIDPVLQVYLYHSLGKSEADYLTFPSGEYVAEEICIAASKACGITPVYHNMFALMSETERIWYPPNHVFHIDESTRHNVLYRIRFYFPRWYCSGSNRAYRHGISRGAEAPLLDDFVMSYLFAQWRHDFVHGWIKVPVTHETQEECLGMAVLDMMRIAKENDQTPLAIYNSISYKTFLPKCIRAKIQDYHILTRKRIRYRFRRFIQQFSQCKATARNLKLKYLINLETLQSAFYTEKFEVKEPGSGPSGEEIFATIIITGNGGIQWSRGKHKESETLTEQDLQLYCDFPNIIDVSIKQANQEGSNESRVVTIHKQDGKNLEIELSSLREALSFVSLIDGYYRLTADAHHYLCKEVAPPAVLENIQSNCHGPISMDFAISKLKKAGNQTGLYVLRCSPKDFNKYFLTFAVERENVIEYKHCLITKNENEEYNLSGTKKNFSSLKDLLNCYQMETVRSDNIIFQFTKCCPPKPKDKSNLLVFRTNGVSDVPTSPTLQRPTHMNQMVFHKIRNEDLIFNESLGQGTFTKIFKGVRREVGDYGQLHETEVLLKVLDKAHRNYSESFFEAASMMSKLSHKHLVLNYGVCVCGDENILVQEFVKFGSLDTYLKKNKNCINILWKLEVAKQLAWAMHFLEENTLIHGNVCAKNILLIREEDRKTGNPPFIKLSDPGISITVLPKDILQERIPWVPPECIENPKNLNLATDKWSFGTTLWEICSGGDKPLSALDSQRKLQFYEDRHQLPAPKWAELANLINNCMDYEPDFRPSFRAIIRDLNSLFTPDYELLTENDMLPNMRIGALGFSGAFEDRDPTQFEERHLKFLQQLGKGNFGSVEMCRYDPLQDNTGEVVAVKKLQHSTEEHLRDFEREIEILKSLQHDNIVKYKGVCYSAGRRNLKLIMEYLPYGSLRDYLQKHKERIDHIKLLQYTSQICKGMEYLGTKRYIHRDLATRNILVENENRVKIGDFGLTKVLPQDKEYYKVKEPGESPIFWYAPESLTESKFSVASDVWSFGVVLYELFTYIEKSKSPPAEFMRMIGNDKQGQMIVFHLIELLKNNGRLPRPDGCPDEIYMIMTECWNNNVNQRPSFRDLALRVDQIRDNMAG

| SMILES | Kinase activity @ 500 nM (%) JAK2 [1] | IC50 [2] | inhibition at 0.5 µM [3] | IC50 [5] | IC50 [4] |
| --- | --- | --- | --- | --- | --- |
| Cc1cnc(Nc2ccc(CNC(=O)/C=C/CN(C)C)cc2)nc1-c1cnn(C(C)C)c1 [CLJ-79, (E)-N-(4-((4-(1-isopropyl-1H-pyrazole-4-yl)-5-methylpyrimidine-2-yl)amino)benzyl)-4-dimethylamino-2-butenamide] | 44% | 100 to 1000 nM | 45% | 100 to 1000 nM | 100 to 1000 nM |
| Cc1cnc(Nc2ccc(CNC(=O)/C=C/C(=O)c3ccccc3)cc2)nc1-c1cnn(C(C)C)c1 [CLJ-81, N-(4-((4-(1-isopropyl-1H-pyrazole-4-yl)-5-methylpyrimidine-2-yl)amino)benzyl)-3-benzoyl acrylamide] | 34% | > 1000 nM | 22% | > 1000 nM | > 1000 nM |
| Cc1cnc(Nc2ccc(CCNC(=O)/C=C/C(=O)c3ccccc3)cc2)nc1-c1cnn(C(C)C)c1 [CLJ-82, N-(4-((4-(1-isopropyl-1H-pyrazole-4-yl)-5-methylpyrimidine-2-yl)amino)phenethyl)-3-benzoyl acrylamide] | 20% | > 1000 nM | 12% | > 1000 nM | > 1000 nM |
| Cc1cnc(Nc2ccc(CNC(=O)CCCN(C)C)cc2)nc1-c1cnn(C(C)C)c1 [CLJ-83, N-(4-((4-(1-isopropyl-1H-pyrazole-4-yl)-5-methylpyrimidine-2-yl)amino)benzyl)-4-dimethylaminobutyramide] | 88% | 10 to 100 nM | 89% | 10 to 100 nM | 100 to 1000 nM |
| Cc1cnc(Nc2ccc(CCNC(=O)CCl)cc2)nc1-c1cnn(C(C)C)c1 [CLJ-86, N-(4-((4-(1-isopropyl-1H-pyrazole-4-yl)-5-methylpyrimidine-2-yl)amino)phenethyl)-2-chloroacetamide] | 37% | > 1000 nM | 45% | 100 to 1000 nM | > 1000 nM |
| Cc1cnc(Nc2ccc(CNC(=O)CCCl)cc2)nc1-c1cnn(C(C)C)c1 [CLJ-87, N-(4-((4-(1-isopropyl-1H-pyrazole-4-yl)-5-methylpyrimidine-2-yl)amino)benzyl)-3-chloropropanamide] | 39% | > 1000 nM | 45% | > 1000 nM | > 1000 nM |
| CCS(=O)(=O)c1nn(C(C)C)cc1-c1nc(Nc2ccc(N3CCC(N(C)CCO)CC3)c(F)c2)ncc1C [CLJ-92, 5-methyl-N-(3-fluoro-4-(4-N-hydroxyethyl-4-N-methylaminopiperidine-1-yl)phenyl)-4-(1-isopropyl-3-ethylsulfonyl-1H-pyrazole-4-yl) pyrimidine-2-amine] | 104% | 10 to 100 nM | 98% | 10 to 100 nM | 100 to 1000 nM |
| Cc1cnc(Nc2ccc(NS(=O)(=O)c3ccc4c(c3)CC(=O)N4)c(F)c2)nc1-c1cnn(C(C)C)c1 [CLJ-95, N-(2-fluoro-4-((4-(1-isopropyl-1H-pyrazole-4-yl)-5-methylpyrimidine-2-yl)amino)phenyl)-2-oxoindoline-5-sulfonamide] | 66% | 100 to 1000 nM | 67% | 100 to 1000 nM | 100 to 1000 nM |
| Cc1cnc(Nc2ccc(NC(=O)[C@H]3CCCN3CC3CC3)c(F)c2)nc1-c1cnn(C(C)C)c1 [CLJ-96, (R)-1-(cyclopropylmethyl)-N-(2-fluoro-4-((4-(1-isopropyl-1H-pyrazole-4-yl)-5-methylpyrimidine-2-yl)amino)phenyl) pyrrolidine-2-carboxamide] | 73% | 100 to 1000 nM | 56% | 100 to 1000 nM | 100 to 1000 nM |
| Cc1cnc(Nc2ccc(NC(=O)[C@H]3C[C@H](F)CN3)c(F)c2)nc1-c1cnn(C(C)C)c1 [CLJ-97, (2R,4S)-4-fluoro-N-(2-fluoro-4-((4-(1-isopropyl-1H-pyrazole-4-yl)-5-methylpyrimidine-2-yl)amino)phenyl) pyrrolidine-2-carboxamide] | 99% | 10 to 100 nM | 101% | 10 to 100 nM | 100 to 1000 nM |
| Cc1cnc(Nc2ccc(S(=O)(=O)NC3CC3)cc2)nc1-c1cnn(C(C)C)c1 [CLJ-99, N-cyclopropyl-4-((4-(1-isopropyl-1H-pyrazol-4-yl)-5-methylpyrimidine-2-yl)amino) benzenesulfonamide] | 100% | 10 to 100 nM | 97% | 10 to 100 nM | 100 to 1000 nM |

Further lines, with some results ahead:

| Kinase activity @ 500 nM (%) JAK2 [1] | IC50 [2] | inhibition at 0.5 µM [3] | IC50 [5] | SMILES | IC50 [4] |
| --- | --- | --- | --- | --- | --- |
| 34% | > 1000 nM | 23% | 100 to 1000 nM | Cc1cnc(Nc2ccc(CCNC(=O)/C=C/CN(C)C)cc2)nc1-c1cnn(C(C)C)c1 [CLJ-80, (E)-N-(4-((4-(1-isopropyl-1H-pyrazole-4-yl)-5-methylpyrimidine-2-yl)amino)phenylethyl)-4-dimethylamino-2-butenamide] | > 1000 nM |
| 79% | 100 to 1000 nM | 78% | 100 to 1000 nM | Cc1cnc(Nc2ccc(CCNC(=O)CCCN(C)C)cc2)nc1-c1cnn(C(C)C)c1 [CLJ-84, N-(4-((4-(1-isopropyl-1H-pyrazole-4-yl)-5-methylpyrimidine-2-yl)amino)phenethyl)-4-dimethylaminobutyramide] | 100 to 1000 nM |
| 56% | > 1000 nM | 67% | 100 to 1000 nM | Cc1cnc(Nc2ccc(CNC(=O)CCl)cc2)nc1-c1cnn(C(C)C)c1 [CLJ-85, N-(4-((4-(1-isopropyl-1H-pyrazole-4-yl)-5-methylpyrimidine-2-yl)amino)benzyl)-2-chloroacetamide] | > 1000 nM |
| 20% | > 1000 nM | 32% | > 1000 nM | Cc1cnc(Nc2ccc(CCNC(=O)CCCl)cc2)nc1-c1cnn(C(C)C)c1 [CLJ-88, N-(4-((4-(1-isopropyl-1H-pyrazole-4-yl)-5-methylpyrimidine-2-yl)amino)phenethyl)-3-chloropropanamide] | > 1000 nM |
| 99% | > 1000 nM | 47% | 100 to 1000 nM | C=CS(=O)(=O)NCc1ccc(Nc2ncc(C)c(-c3cnn(C(C)C)c3)n2)cc1 [CLJ-89] | 10 to 100 nM |
| 97% | 10 to 100 nM | 95% | 10 to 100 nM | C=CS(=O)(=O)NCCc1ccc(Nc2ncc(C)c(-c3cnn(C(C)C)c3)n2)cc1 [CLJ-90] | 100 to 1000 nM |
| 100% | 10 to 100 nM | 97% | 10 to 100 nM | Cc1cnc(Nc2ccc(NC(=O)[C@H]3CCCN3)c(F)c2)nc1-c1cnn(C(C)C)c1 [CLJ-93, (R)-2-((2-fluoro-4-((4-(1-isopropyl-1H-pyrazole-4-yl)-5-methylpyrimidine-2-yl)amino)phenyl)carbamoyl) pyrrolidine] | 100 to 1000 nM |
| 97% | 10 to 100 nM | 95% | 10 to 100 nM | Cc1cnc(Nc2ccc(NC(=O)CN3CCS(=O)(=O)CC3)c(F)c2)nc1-c1cnn(C(C)C)c1 [CLJ-98, 2-(1,1-dioxthiomorpholine)-N-(2-fluoro-4-((4-(1-isopropyl-1H-pyrazol-4-yl)-5-methylpyrimidine-2-yl)amino)phenyl) acetamide] | 100 to 1000 nM |
